What was measured:
RON (human) = RON (human) (Homo sapiens, UniProt Q04912); test: RON kinase AlphaScreen assay (Km of ATP); type: biochemical; conditions: ATP at Km; at least duplicate experiments
Summary of the method: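 AlphaScreen with PT66 donor/acceptor beads, read after 1 h, detected phosphorylation of biotinylated poly(Glu,Tyr) by human RON. Enzyme-started reactions ran 30 min at room temperature with ATP at Km. Buffer was HEPES pH 7.4 with MgCl2, glycerol, vanadate and 1% DMSO.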

MET (human) = MET (human) (Homo sapiens, UniProt P08581); test: MET kinase AlphaScreen assay (Km of ATP); type: biochemical; conditions: ATP at Km; at least duplicate experiments
MET (human), sequence (P08581 25-1390): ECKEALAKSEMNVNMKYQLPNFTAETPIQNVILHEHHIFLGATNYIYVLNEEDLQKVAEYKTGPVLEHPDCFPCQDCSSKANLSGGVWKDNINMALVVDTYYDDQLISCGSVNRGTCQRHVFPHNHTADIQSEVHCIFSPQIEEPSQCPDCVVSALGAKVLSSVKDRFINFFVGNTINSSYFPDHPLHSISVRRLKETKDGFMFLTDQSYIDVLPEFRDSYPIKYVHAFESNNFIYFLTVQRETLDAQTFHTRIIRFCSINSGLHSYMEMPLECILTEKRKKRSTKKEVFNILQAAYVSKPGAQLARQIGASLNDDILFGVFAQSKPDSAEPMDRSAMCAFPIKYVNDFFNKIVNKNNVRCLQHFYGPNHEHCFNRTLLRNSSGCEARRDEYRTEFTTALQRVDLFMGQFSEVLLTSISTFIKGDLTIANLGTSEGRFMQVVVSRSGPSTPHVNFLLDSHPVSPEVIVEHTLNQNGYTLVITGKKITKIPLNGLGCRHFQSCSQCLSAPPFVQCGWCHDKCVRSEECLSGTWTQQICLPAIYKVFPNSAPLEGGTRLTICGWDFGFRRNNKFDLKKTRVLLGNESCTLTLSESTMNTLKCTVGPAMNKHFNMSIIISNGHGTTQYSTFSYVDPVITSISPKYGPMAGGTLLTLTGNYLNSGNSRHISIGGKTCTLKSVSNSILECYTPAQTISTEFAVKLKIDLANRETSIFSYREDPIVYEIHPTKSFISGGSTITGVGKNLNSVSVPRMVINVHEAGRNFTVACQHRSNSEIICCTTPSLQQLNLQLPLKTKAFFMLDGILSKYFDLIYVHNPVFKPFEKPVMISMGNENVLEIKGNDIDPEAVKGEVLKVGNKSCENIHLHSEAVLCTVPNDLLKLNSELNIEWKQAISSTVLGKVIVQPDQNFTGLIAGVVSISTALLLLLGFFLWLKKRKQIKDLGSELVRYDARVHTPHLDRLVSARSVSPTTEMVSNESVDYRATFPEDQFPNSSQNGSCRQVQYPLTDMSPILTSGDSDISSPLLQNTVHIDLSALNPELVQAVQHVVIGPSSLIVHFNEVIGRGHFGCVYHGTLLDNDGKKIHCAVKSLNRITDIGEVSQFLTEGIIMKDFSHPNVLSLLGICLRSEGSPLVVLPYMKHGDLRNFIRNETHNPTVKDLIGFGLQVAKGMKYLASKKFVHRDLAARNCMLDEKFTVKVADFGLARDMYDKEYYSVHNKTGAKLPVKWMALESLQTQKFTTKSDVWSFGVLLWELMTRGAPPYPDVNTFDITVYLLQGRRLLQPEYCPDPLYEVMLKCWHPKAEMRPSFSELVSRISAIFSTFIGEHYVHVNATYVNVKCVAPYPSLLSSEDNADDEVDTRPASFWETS
Summary of the method: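 AlphaScreen detection with PT66 beads (1 h) follows a 60 min room-temperature MET reaction. Substrate is 200 ng/μL biotinylated poly(Glu,Tyr), with ATP set at an enzyme-optimized concentration. Buffer is HEPES pH 7.4 with MgCl2, MnCl2 and 0.334 mM vanadate, compounds at 1% DMSO.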

RON (human), sequence (Q04912 25-1400): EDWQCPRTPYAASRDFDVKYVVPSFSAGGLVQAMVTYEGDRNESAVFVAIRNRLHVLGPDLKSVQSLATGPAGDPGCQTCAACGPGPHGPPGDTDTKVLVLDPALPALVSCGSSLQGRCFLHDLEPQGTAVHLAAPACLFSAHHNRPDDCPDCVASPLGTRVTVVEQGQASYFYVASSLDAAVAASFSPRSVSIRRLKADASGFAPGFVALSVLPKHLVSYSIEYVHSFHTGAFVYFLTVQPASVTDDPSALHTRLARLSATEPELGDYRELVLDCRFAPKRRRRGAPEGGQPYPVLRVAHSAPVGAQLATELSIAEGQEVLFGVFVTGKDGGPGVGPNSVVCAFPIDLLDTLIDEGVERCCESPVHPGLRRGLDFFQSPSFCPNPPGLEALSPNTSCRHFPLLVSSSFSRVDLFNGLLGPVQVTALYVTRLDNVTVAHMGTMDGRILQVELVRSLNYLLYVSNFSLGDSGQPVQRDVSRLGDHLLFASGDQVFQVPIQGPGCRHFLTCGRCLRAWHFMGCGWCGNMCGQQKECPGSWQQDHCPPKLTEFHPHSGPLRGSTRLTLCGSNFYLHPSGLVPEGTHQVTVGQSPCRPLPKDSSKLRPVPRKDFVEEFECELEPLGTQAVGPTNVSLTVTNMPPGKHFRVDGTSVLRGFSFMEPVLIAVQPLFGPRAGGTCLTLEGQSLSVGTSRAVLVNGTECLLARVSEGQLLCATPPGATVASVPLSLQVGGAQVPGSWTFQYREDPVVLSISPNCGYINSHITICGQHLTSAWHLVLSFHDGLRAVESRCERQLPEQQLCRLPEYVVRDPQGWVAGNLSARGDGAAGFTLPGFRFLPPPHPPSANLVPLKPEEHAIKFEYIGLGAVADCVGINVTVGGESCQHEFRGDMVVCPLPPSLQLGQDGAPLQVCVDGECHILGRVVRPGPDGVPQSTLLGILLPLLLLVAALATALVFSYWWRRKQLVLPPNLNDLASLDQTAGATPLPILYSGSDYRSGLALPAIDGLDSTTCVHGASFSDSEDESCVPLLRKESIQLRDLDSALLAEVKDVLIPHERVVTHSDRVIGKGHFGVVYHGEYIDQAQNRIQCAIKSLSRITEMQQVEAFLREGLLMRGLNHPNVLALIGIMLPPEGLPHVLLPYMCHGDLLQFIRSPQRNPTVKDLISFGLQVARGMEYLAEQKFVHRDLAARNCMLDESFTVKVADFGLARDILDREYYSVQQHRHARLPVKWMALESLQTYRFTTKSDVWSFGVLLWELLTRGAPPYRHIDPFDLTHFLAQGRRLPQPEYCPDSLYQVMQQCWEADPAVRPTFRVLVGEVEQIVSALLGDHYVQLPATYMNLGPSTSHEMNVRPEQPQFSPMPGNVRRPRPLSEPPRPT

Structure (SMILES): CC(C(=O)N1CCCCC1)n1cc(-c2cnc(N)c(-c3nc4ccccc4s3)c2)cn1 (centres unmarked) [Example 152, 2-[4-(6-Amino-5-benzothiazol-2-ylpyridin-3-yl)-pyrazol-1-yl]-1-piperidin-1-ylpropan-1-one]
- IC50 (RON (human)): 1000 to 20000 nM
- IC50 (MET (human)): 1000 to 20000 nM

Structure (SMILES): Nc1ncc(-c2cnn(CCC(=O)N3CCCC3)c2)cc1-c1nc2ccccc2s1 [Example 153, 3-[4-(6-Amino-5-benzothiazol-2-ylpyridin-3-yl)-pyrazol-1-yl]-1-pyrrolidin-1-ylpropan-1-one]
- IC50 (RON (human)): > 20000 nM
- IC50 (MET (human)): 100 to 1000 nM

Structure (SMILES): Nc1ncc(-c2cnn([C@@H]3CN[C@H](C(=O)O)C3)c2)cc1-c1nc2ccccc2s1 [Example 154, (2S,4S)-4-[4-(6-Amino-5-benzothiazol-2-ylpyridin-3-yl)-pyrazol-1-yl]-pyrrolidine-2-carboxylic acid]
- IC50 (RON (human)): 100 to 1000 nM
- IC50 (MET (human)): ≤ 100 nM

Structure (SMILES): CN(C)C(=O)[C@@H]1C[C@H](n2cc(-c3cnc(N)c(-c4nc5ccccc5s4)c3)cn2)CN1 [Example 155, (2S,4S)-4-[4-(6-Amino-5-benzothiazol-2-ylpyridin-3-yl)-pyrazol-1-yl]-pyrrolidine-2-carboxylic acid dimethylamide]
- IC50 (RON (human)): 100 to 1000 nM
- IC50 (MET (human)): ≤ 100 nM

Structure (SMILES): Nc1ncc(-c2cnn([C@@H]3CN[C@H](C(=O)N4CCCC4)C3)c2)cc1-c1nc2ccccc2s1 [Example 156, {(2S,4S)-4-[4-(6-Amino-5-benzothiazol-2-ylpyridin-3-yl)-pyrazol-1-yl]-pyrrolidin-2-yl}-pyrrolidin-1-ylmethanone]
- IC50 (RON (human)): ≤ 100 nM
- IC50 (MET (human)): ≤ 100 nM

Structure (SMILES): Nc1ncc(-c2cnn([C@@H]3CN[C@H](C(=O)N4CCOCC4)C3)c2)cc1-c1nc2ccccc2s1 [Example 157, {(2S,4S)-4-[4-(6-Amino-5-benzothiazol-2-ylpyridin-3-yl)-pyrazol-1-yl]-pyrrolidin-2-yl}-morpholin-4-ylmethanone]
- IC50 (RON (human)): ≤ 100 nM
- IC50 (MET (human)): ≤ 100 nM

Structure (SMILES): Nc1ncc(-c2cnn([C@@H]3CN[C@H](C(=O)N4CCCCC4)C3)c2)cc1-c1nc2ccccc2s1 [Example 158, {(2S,4S)-4-[4-(6-Amino-5-benzothiazol-2-ylpyridin-3-yl)-pyrazol-1-yl]-pyrrolidin-2-yl}-piperidin-1-ylmethanone]
- IC50 (RON (human)): ≤ 100 nM
- IC50 (MET (human)): ≤ 100 nM

Structure (SMILES): Nc1ncc(-c2cnn([C@@H]3CN[C@H](C(=O)N4CCC(O)C4)C3)c2)cc1-c1nc2ccccc2s1 (stereo partly drawn) [Example 159, {(2S,4S)-4-[4-(6-Amino-5-benzothiazol-2-ylpyridin-3-yl)-pyrazol-1-yl]-pyrrolidin-2-yl}-(3-hydroxypyrrolidin-1-yl)-methanone]
- IC50 (RON (human)): ≤ 100 nM
- IC50 (MET (human)): ≤ 100 nM

Structure (SMILES): Nc1ncc(-c2cnn([C@@H]3CN[C@H](C(=O)N4CCC4)C3)c2)cc1-c1nc2ccccc2s1 [Example 160, {(2S,4S)-4-[4-(6-Amino-5-benzothiazol-2-ylpyridin-3-yl)-pyrazol-1-yl]-pyrrolidin-2-yl}-azetidin-1-ylmethanone]
- IC50 (RON (human)): 100 to 1000 nM
- IC50 (MET (human)): ≤ 100 nM

Structure (SMILES): Nc1ncc(-c2cnn(C3CCN(CC(=O)O)CC3)c2)cc1-c1nc2ccccc2s1 [Example 161, {4-[4-(6-Amino-5-benzothiazol-2-ylpyridin-3-yl)-pyrazol-1-yl]-piperidin-1-yl}-acetic acid]
- IC50 (RON (human)): 100 to 1000 nM
- IC50 (MET (human)): ≤ 100 nM

Structure (SMILES): NC(=O)CN1CCC(n2cc(-c3cnc(N)c(-c4nc5ccccc5s4)c3)cn2)CC1 [Example 162, 2-{4-[4-(6-Amino-5-benzothiazol-2-ylpyridin-3-yl)-pyrazol-1-yl]-piperidin-1-yl}-acetamide]
- IC50 (RON (human)): 100 to 1000 nM
- IC50 (MET (human)): ≤ 100 nM

Structure (SMILES): CNC(=O)CN1CCC(n2cc(-c3cnc(N)c(-c4nc5ccccc5s4)c3)cn2)CC1 [Example 163, 2-{4-[4-(6-Amino-5-benzothiazol-2-ylpyridin-3-yl)-pyrazol-1-yl]-piperidin-1-yl}-N-methylacetamide]
- IC50 (RON (human)): 100 to 1000 nM
- IC50 (MET (human)): 100 to 1000 nM

Structure (SMILES): CN(C)C(=O)CN1CCC(n2cc(-c3cnc(N)c(-c4nc5ccccc5s4)c3)cn2)CC1 [Example 164, 2-{4-[4-(6-Amino-5-benzothiazol-2-ylpyridin-3-yl)-pyrazol-1-yl]-piperidin-1-yl}-N,N-dimethylacetamide]
- IC50 (RON (human)): 100 to 1000 nM
- IC50 (MET (human)): 100 to 1000 nM
